# From US6479460B1, “Synthetic peptides and pseudopeptides having osteogenic activity and pharmaceutical compositions containing the same” (Yissum Research Development Company of the Hebrew …, priority 1996, dated 2002)
# Where no end group is shown, it is not given here. [ ]: non-standard residue; d: D form. The star is where a group is joined. ol = C-terminal alcohol (reduced C-terminus); Desaminotyrosyl = O=C(CCc1ccc(O)cc1)*; Hydrocinnamoyl = O=C(CCc1ccccc1)*; Propionyl = CCC(=O)*; GABA = NCCCC(=O)O
# Columns and labels:
# [1] = tested on: osteoblastic MC3T3 E1 cells; assay: Proliferation assay, osteoblastic MC3T3 E1 cells; assay type: cell-based; conditions: analog concentration 10^−13M; mean cell number relative to positive control OGP(1-14) = 1.00
# From the text: (§1) Some of the analogs were subjected to a dose response analysis.
# [2] = tested on: fibroblastic NIH 3T3 cells; assay: Proliferation assay, fibroblastic NIH 3T3 cells; assay type: cell-based; conditions: analog concentration 10^−11M; mean cell number relative to positive control OGP(1-14) = 1.00
# From the text: as §1
substance,measurement,setting,value
desamino[Phe^10]OGP(10-14) ([Hydrocinnamoyl]GFGG),Relative in vitro potency (95% confidence limit) MC3T3 E1 cells,[1],0.35
same,Relative in vitro potency (95% confidence limit) NIH 3T3 cells,[2],0.48
[D-Ala^10]OGP(10-14),Relative in vitro potency (95% confidence limit) MC3T3 E1 cells,[1],0.12
same,Relative in vitro potency (95% confidence limit) NIH 3T3 cells,[2],0.16
"desamino[Tyr^10,Ala^14]OGP(10-14) ([Desaminotyrosyl]GFGA)",Relative in vitro potency (95% confidence limit) MC3T3 E1 cells,[1],0.19
same,Relative in vitro potency (95% confidence limit) NIH 3T3 cells,[2],0.16
desamino[Tyr^10]OGP(10-14)—ol ([Desaminotyrosyl]GFGG-ol),Relative in vitro potency (95% confidence limit) MC3T3 E1 cells,[1],0.24
same,Relative in vitro potency (95% confidence limit) NIH 3T3 cells,[2],0.28
desamino[Ala^10]OGP(10-14) ([Propionyl]GFGG),Relative in vitro potency (95% confidence limit) MC3T3 E1 cells,[1],0.28
same,Relative in vitro potency (95% confidence limit) NIH 3T3 cells,[2],0.09
c(γ-Abu-Tyr-Gly-Phe-Gly-Gly) (cyclo([GABA]YGFGG); SMILES O=C1CNC(=O)CNC(=O)[C@H](Cc2ccccc2)NC(=O)CNC(=O)[C@H](Cc2ccc(O)cc2)NC(=O)CCCN1),Relative in vitro potency (95% confidence limit) MC3T3 E1 cells,[1],0.20
same,Relative in vitro potency (95% confidence limit) NIH 3T3 cells,[2],0.22
"desamino[Tyr^10,Ala^12]OGP(10-14) [desamino[Tyr^10,Ala^12]OGP(10-14) (SEQ ID NO: 21)] ([Desaminotyrosyl]GAGG)",Relative in vitro potency (95% confidence limit) MC3T3 E1 cells,[1],0.21
same,Relative in vitro potency (95% confidence limit) NIH 3T3 cells,[2],0.16
[Ala^13]OGP(11-14) (GFAG),Relative in vitro potency (95% confidence limit) MC3T3 E1 cells,[1],0.22
same,Relative in vitro potency (95% confidence limit) NIH 3T3 cells,[2],0.10
Nα-Ac—OGP(11-14) (Ac-GFGG),Relative in vitro potency (95% confidence limit) MC3T3 E1 cells,[1],0.21
same,Relative in vitro potency (95% confidence limit) NIH 3T3 cells,[2],0.22
[Ala^11]OGP(10-14) (YAFGG),Relative in vitro potency (95% confidence limit) MC3T3 E1 cells,[1],0.18
same,Relative in vitro potency (95% confidence limit) NIH 3T3 cells,[2],0.31
desamino[Tyr^10]OGP(10-14)—NHMe ([Desaminotyrosyl]GFGG-NHMe; SMILES CNC(=O)CNC(=O)CNC(=O)[C@H](Cc1ccccc1)NC(=O)CNC(=O)CCc1ccc(O)cc1),Relative in vitro potency (95% confidence limit) MC3T3 E1 cells,[1],0.18
same,Relative in vitro potency (95% confidence limit) NIH 3T3 cells,[2],0.16
"desamino[Tyr^10,Ala^12]OGP(10-14) [desamino[Tyr^10,Ala^12]OGP(10-14) (SEQ ID NO: 20)]",Relative in vitro potency (95% confidence limit) MC3T3 E1 cells,[1],0.41
same,Relative in vitro potency (95% confidence limit) NIH 3T3 cells,[2],0.43
desamino Tyr-CH2-Gly-Phe-Gly-Gly ([Desaminotyrosyl]GFGG; also: reduced amide bond Tyr-CH2-Gly) [desamino[Tyr^10ψ(CH2NH)Gly^11]OGP(10-14)],Relative in vitro potency (95% confidence limit) MC3T3 E1 cells,[1],0.81
same,Relative in vitro potency (95% confidence limit) NIH 3T3 cells,[2],0.79
c(δ-Ala-Tyr-Gly-Phe-Gly-Asp)-OH,Relative in vitro potency (95% confidence limit) MC3T3 E1 cells,[1],0.20
same,Relative in vitro potency (95% confidence limit) NIH 3T3 cells,[2],0.11
"desamino[Tyr^10,D-Ala^13]OGP(10-14)",Relative in vitro potency (95% confidence limit) MC3T3 E1 cells,[1],0.28
same,Relative in vitro potency (95% confidence limit) NIH 3T3 cells,[2],0.23
desamino Tyr-Gly-Phe-NH-CH2-CH2-Gly (YGFGG; not fully specified; desamino Tyr10; reduced CH2NH bond Gly13-Gly14),Relative in vitro potency (95% confidence limit) MC3T3 E1 cells,[1],0.78
same,Relative in vitro potency (95% confidence limit) NIH 3T3 cells,[2],0.80
[Ala^10]OGP(10-14) (AGFGG),Relative in vitro potency (95% confidence limit) MC3T3 E1 cells,[1],0.29
same,Relative in vitro potency (95% confidence limit) NIH 3T3 cells,[2],0.17
(desamino[Phe^10]2OGP(10-14),Relative in vitro potency (95% confidence limit) MC3T3 E1 cells,[1],0.18
same,Relative in vitro potency (95% confidence limit) NIH 3T3 cells,[2],0.24
desamino Tyr-Gly-Phe-NH-CH2-CH2-CH2-CH2-C(O)-OH,Relative in vitro potency (95% confidence limit) MC3T3 E1 cells,[1],0.78
same,Relative in vitro potency (95% confidence limit) NIH 3T3 cells,[2],0.188
"desamino[Tyr^10,Sar^11]OGP(10-14) [desamino[Tyr^10,Sar^11]OGP(10-14) (SEQ ID NO: 34)]",Relative in vitro potency (95% confidence limit) MC3T3 E1 cells,[1],0.16
same,Relative in vitro potency (95% confidence limit) NIH 3T3 cells,[2],0.14)
